Test results as given in patent US8058285B2, “Substituted pyrido [3′, 2′: 4, 5] thieno [3, 2-D] pyrimidines and pyrido [3′, 2′: 4, 5] furo [3, 2-D] pyrimidines used as inhibitors of the PDE-4 and/or the release of TNF-ALPHA” (The Medicines Company (Leipzig) GmbH, priority 2004, dated 2011).

Tests used:
PDE-4A = molecular target: T1, PDE-4A (Homo sapiens, UniProt P27815); assay: PDE-4A inhibitory assay (SPA); assay type: biochemical
T1 construct: PDE-4A catalytic domain comprising amino acids 342-704; made in house; host or cells: Escherichia coli
Outline: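 Human recombinant PDE-4A catalytic domain (aa 342-704), E. coli-expressed. SPA with 1 μM [^3H]-cAMP substrate in 100 mM Tris-HCl pH 7.5, 5 mM MgCl2, 1% DMSO; 20 min at 22° C. Non-specific activity with 100 μM rolipram subtracted.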

TNFα release = assay: LPS-induced TNFα release in diluted human blood (ELISA); assay type: cell-based; details: LPS 1 μg/ml, human blood diluted 1:5, 24 h; read-out: IC50 value in the TNFα inhibitory assay
Text: Isolated leukocytes can be stimulated for the release of cytokines in different ways. Lipopolysaccharides (LPS) are a stimulus for the investigation of the TNFα release. LPS is part of bacterial cell walls and is released when the bacteria are killed (by antibiotics or the natural immune system). LPS stimulates in particular the activity of phagocytizing leukocytes (tissue macrophages, granulocytes, monocytes) and causes the infiltration of leukocytes from the peripheral blood into the affected tissue. A cytokine of special significance for these mechanisms is TNFα which is secreted in large amounts by the affected cells. The main source are here monocytes and macrophages. TNFα initiates and prolongs the inflammatory process in cooperation with other mediators.
For the investigation of the effect on the LPS-induced TNFα release a method was used which was described by Marx, D., Tassabehji, M., Heer, S., Hüttenbrink, K.-B., and I. Szelenyi, Pulmonary Pharmacology & Therapeutics (2002) 15, 7-15. The method is briefly: Human blood was taken from various donors, rendered incoagulable by the addition of 10 mM Na citrate and diluted 1:5 with RPMI 1640 cell culture medium. The test substances were added to the blood samples at various concentrations. 15 min later, the leukocytes were stimulated by the addition of lipopolysaccharides (LPS) from Salmonella abortus equi at a final concentration of 1 μg/ml. After the incubation of the test batches at 37° C. and under 5% CO2 in a water-saturated air for 24 h, the blood was centrifuged and the TNFα concentration in the cell-free supernatant was accurately measured using a purchasable ELISA (BD Biosciences) according to the manufacturer's instructions.

[1] = tested on: murine neuroblastoma cell line N2a; assay: Induction of axon growth in N2a cells; assay type: cell-based; details: 1 μM in the test batch, after 72 h, listed as 7-(3,4-dimethoxyphenyl)-4-ethoxy-9-methyl-2-piperazin-1-yl-pyrido[3′,2′:4,5]-thi
Text: The inventors have tested some PDE4 inhibitors according to the invention for induction of axon growth with the murine neuroblastoma cell line N2a. It turned out that in particular the substances 4-ethoxy-9-ethyl-7-(3,4-methylenedioxyphenyl)-2-piperazin-1-yl-pyrido[3′,2′:4,5]thieno[3,2-d]-pyrimidine and 7-(3,4-dimethoxyphenyl)-4-ethoxy-9-methyl-2-piperazin-1-yl-pyrido[3′,2′:4,5]thieno[3,2-d]pyrimidine hydrochloride were able to induce the growth of long processes (“axons”) having a length of up to […] at concentrations of 1 μM in the test batch after 72 h (FIGS. 1a and 1b).

CLL cells = assay: Cytotoxicity on CLL cells, formazan reduction assay (MTT test); details: 1 μM, 24 h incubation of the patient's blood, primary CLL
Method: The positive control used was fludarabine which is employed for CLL as a standard chemotherapeutic agent.
The cytotoxicity of the CLL cells was determined by means of a commercially available formazan reduction assay (MTT test) after 24 h of incubation of the patient's blood with the active substances.

PDE-4 = details: cited from earlier work

T1 sequence (P27815 342-704): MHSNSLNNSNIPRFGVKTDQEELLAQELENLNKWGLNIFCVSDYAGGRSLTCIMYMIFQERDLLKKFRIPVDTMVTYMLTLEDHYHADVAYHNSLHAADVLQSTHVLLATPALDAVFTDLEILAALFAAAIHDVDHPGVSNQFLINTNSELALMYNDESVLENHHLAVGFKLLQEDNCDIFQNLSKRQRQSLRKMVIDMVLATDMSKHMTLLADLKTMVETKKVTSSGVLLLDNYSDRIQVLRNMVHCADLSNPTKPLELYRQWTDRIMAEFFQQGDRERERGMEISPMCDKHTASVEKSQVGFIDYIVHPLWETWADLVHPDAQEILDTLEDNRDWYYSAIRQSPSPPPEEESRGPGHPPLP

SMILES | IC50 (PDE-4A) [nM] | melting point | further results
CCOc1nc(N2CCNCC2)c2oc3nc(-c4ccccc4)cc(C)c3c2n1 [2-Ethoxy-7-phenyl-9-methyl-4-(piperazin-1-yl)-pyrido[3′,2′:4,5]furo[3,2-d]pyrimidine] | 2 to 50 | 175 °C | –
CCOc1nc(N2CCNCC2)nc2c1sc1nc(-c3ccc(OC)c(OC)c3)cc(C)c12.Cl [4-Ethoxy-7-(3,4-dimethoxy-phenyl)-9-methyl-2-(piperazin-1-yl)-pyrido[3′,2′:4,5]thieno[3,2-d]pyrimidine-hydrochloride] | – | – | IC50 (TNFα release): < 2000 nM; length of induced long processes (axons) [1]: ≤ 300 µm
CCOc1nc(N2CCNCC2)nc2c1oc1nc(-c3ccccc3)cc(C)c12 [4-Ethoxy-7-phenyl-9-methyl-2-(piperazin-1-yl)-pyrido[3′,2′:4,5]furo[3,2-d]pyrimidine] | 2 to 50 | 131 to 132 °C | –
C=Cc1ccc(-c2nc(C)c3c(n2)sc2c(OCC)nc(N4CCNCC4)nc23)cc1 [4-Ethoxy-9-methyl-2-piperazin-1-yl-7-(4-vinyl-phenyl)-thieno[2,3-d:4,5-d′]dipyrimidine] | 2 to 50 | 165 to 166 °C | –
CCOc1nc(N2CCNCC2)nc2c1sc1nc(-c3ccc(C(O)CO)cc3)nc(C)c12 (centres unmarked) [7-(4-[1,2-Dihydroxyethyl]-phenyl)-4-ethoxy-9-methyl-2-piperazin-1-yl-thieno[2,3-d:4,5-d′]dipyrimidine] | 2 to 50 | > 300 °C | IC50 (TNFα release): < 2000 nM
CCS(=O)(=O)c1nc(N2CCNCC2)c2sc3nc(-c4ccccc4)cc(C)c3c2n1 [Example 15, 2-ethylsulfonyl-9-methyl-7-phenyl-4-piperazin-1-yl-pyrido-[3′,2′:4,5]thieno[3,2-d]pyrimidine] | – | 190 °C (dec.) | –
Nc1nc(F)nc2c1ncn2[C@@H]1O[C@H](CO)[C@@H](O)[C@@H]1O [fludarabine] | – | – | cytotoxicity, share of the cells (CLL cells): ≤ 60%
O=C(Nc1c(Cl)cncc1Cl)c1ccc(OC(F)F)c(OCC2CC2)c1 [roflumilast] | – | – | IC50 (PDE-4): 0.8 nM
